Several values for one entry are separate records, joined by “and”; a condition that tells them apart may be missing. Equal values may be shown once. Read-outs that look alike come from different tables or passages of the source.
Tests used:
[1] = test system: Secondary Alcohol Dehydrogenase; assay: Dehydrogenation of the secondary alcohol in the coupled reaction (Example 22); format: biochemical, yeast Pichia sp.; settings: NAD^+
Procedure: The procedure of Example 15 was followed using 1.0 ml of a reaction mixture consisting of 50 µ moles potassium phosphate buffer at pH 7.0, 10 µ moles NAD^+, 10 µ moles secondary alcohol (either 2-butanol or 2-propanol), and, as the remainder, secondary alcohol dehydrogenase from yeast Pichia sp. and the soluble S(80) fraction obtained as described in Example 14. The dehydrogenase was previously purified as described in Patel et al., Eur. J. Biochem., 101, 401 (1979).

[2] = test system: Soluble Methane Monooxygenase from Methylobacterium organophilum (ATCC 27,886); assay: Oxidation of alkanes/alkenes with NADH2 regenerated by secondary alcohol dehydrogenase (Example 22); format: biochemical
Procedure: (§1) The vials were incubated at 35°C on a reciprocating water bath shaker at 50 oscillations per minute.. The gaseous phase of the vials was evacuated by vacuum and replaced with a gaseous mixture consisting of 1:1 by volume oxygen:the alkane substrate indicated in Table XVIII, at which point the reaction was initiated.
(§2) The rate of oxidation of the alkane substrates was measured either by estimation of products formed or by amount of substrate utilized from the gas or liquid phase. In the former case, 1-2 µ 1 samples of the reaction mixture were injected into a gas chromatograph immediately after addition of substrate (zero time) and after 4 and 8 min. of incubation. Specific activities were expressed as nmoles of product formed per min. per mg of protein, with the higher number representing better conversion. If substrate utilization was the measure of oxidation rate, […] of liquid or 50 Al of gas was injected into the gas chromatograph at zero time and after 4 and 8 min. of incubation of the reaction mixture at 35°C, and specific activities were expressed as the amount of substrate utilized per min. per mg. of protein. Regardless of the procedure employed, control experiments were conducted for each substrate in the absence of NADH2, in the absence of oxygen, and using boiled extracts.
(§3) The alcohol products were identified and estimated by retention time comparisons and co-chromatography with authentic standards using flame-ionization gas chromatography. The column temperature was maintained isothermally between 80°C and 130°C with helium carrier gas flow rates of 20-40 ml per min. The amount of product formed was estimated from peak areas using a standard graph constructed using authentic compounds.
(§4) Duplicate measurements were carried out for each substrate. Protein concentrations in cellular fractions were estimated with Folin Ciocalteu reagent as described by O.H. Lowry et al., supra, using bovine serum albumin as a standard.

[3] = molecular target: T1, soluble methane monooxygenase from Methylococcus capsulatus (Bath) (Methylococcus capsulatus, UniProt P22869); format: biochemical; set-up: host or cells: soluble fraction of Methylococcus capsulatus Strain Bath; settings: comparison with CRL.26 in Example 9
T1 sequence (P22869 whole entry): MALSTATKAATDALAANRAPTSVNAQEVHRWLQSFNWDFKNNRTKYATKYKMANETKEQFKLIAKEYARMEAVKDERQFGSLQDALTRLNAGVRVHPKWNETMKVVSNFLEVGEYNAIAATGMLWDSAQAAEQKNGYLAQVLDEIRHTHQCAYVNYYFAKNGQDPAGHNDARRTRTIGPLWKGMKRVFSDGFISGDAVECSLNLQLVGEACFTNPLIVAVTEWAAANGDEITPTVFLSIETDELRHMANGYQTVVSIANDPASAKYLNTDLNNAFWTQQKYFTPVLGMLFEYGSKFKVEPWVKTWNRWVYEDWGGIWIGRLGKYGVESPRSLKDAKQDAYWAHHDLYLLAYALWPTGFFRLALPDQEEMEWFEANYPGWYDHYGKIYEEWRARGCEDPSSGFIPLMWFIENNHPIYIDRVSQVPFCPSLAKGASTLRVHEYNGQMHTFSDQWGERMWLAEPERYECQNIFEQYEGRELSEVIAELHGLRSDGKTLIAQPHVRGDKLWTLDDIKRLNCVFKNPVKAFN
T1 sequence (P18798 whole entry, further chain): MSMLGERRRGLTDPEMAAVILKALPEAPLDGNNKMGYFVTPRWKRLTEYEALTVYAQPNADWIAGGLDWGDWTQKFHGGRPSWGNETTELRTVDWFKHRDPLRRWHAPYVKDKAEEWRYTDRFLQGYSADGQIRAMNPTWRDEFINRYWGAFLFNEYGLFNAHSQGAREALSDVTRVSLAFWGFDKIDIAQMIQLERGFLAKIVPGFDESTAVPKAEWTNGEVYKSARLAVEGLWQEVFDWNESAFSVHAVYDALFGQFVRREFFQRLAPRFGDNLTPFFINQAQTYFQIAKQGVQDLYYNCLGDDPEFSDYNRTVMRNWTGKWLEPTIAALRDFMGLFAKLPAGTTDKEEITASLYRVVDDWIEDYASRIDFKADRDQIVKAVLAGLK
T1 sequence (P11987 whole entry, further chain): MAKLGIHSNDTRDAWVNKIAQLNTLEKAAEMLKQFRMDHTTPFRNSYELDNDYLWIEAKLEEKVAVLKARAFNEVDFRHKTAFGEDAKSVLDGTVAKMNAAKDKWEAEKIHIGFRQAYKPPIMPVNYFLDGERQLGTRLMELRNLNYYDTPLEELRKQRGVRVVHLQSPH

[4] = test system: Soluble Methane Monooxygenase; assay: Effect of potential inhibitors on propylene oxidation by the soluble S(80) fraction (Example 9); format: biochemical, Methylobacterium organophilum (CRL.26)
Procedure: (§5) The vials were incubated at 35 °C on a reciprocating water bath shaker at 50 oscillations per minute. […]
[…] Specific activities were expressed as nmoles of product formed per min. per mg. of protein, with the higher number representing better conversion. With each substrate, control experiments were conducted in the absence of NADH2, in the absence of oxygen, and using boiled extracts.
[…] The column temperature was maintained isothermally between 80 °C and 200°C with helium carrier gas flow rates of 20-40 ml per min. The amount of product formed was estimated from peak areas using a standard graph constructed using authentic compounds.
(§6) Duplicate measurements were carried out for each substrate.

[5] = test system: Soluble Methane Monooxygenase from Methylobacterium organophilum (ATCC 27,886); assay: Oxidation of alkanes/alkenes with NADH2 regenerated by formate and NAD+ (Example 20); format: biochemical
Procedure: as §1, §2, §3, §4

[6] = test system: Methane Monooxygenase from Methylobacterium sp. CRL.26; assay: Hydroxylation of alkanes / epoxidation of alkenes with NADH2 regenerated by formaldehyde dehydrogenase (Example 12, Table XV); format: biochemical
Procedure: The vials were incubated at 35 °C on a reciprocating water bath shaker at 50 oscillations per minute. The gaseous phase of the vials was evacuated by vacuum and replaced with a 1 to 1 by volume gaseous mixture of the alkane substrate indicated in Table III to oxygen, at which point the reaction was initiated.
(§7) The rate of oxidation of the alkanes was measured by injecting 1-2 µ 1 samples of the reaction mixture into a gas chromatograph immediately after addition of substrate (zero time) and after 5 and 10 min. of incubation. Specific activities were expressed as nmoles of product formed per min. per mg. of protein, with the higher number representing better conversion. With each substrate, control experiments were conducted in the absence of NADH2, in the absence of oxygen, and using boiled extracts.
(§8) The alcohol products were identified and estimated by retention time comparisons and co-chromatography with authentic standards using flame-ionization gas chromatography. The column temperature was maintained isothermally between 80 °C and 200°C with helium carrier gas flow rates of 20-40 ml per min. The amount of product formed was estimated from peak areas using a standard graph constructed using authentic compounds.
Duplicate measurements were carried out for each substrate. Protein concentrations in cellular fractions were estimated with Folin Ciocalteu reagent as described by O.H. Lowry et al., J. Biol. Chem., 193, 265 (1951), using bovine serum albumin as a standard.

[7] = molecular target: soluble methane monooxygenase from Methylosinus trichosporium (OB3b) (Methylosinus trichosporium, UniProt P27353); settings: cited from earlier work
Sequence of soluble methane monooxygenase from Methylosinus trichosporium (OB3b) (P27354 whole entry): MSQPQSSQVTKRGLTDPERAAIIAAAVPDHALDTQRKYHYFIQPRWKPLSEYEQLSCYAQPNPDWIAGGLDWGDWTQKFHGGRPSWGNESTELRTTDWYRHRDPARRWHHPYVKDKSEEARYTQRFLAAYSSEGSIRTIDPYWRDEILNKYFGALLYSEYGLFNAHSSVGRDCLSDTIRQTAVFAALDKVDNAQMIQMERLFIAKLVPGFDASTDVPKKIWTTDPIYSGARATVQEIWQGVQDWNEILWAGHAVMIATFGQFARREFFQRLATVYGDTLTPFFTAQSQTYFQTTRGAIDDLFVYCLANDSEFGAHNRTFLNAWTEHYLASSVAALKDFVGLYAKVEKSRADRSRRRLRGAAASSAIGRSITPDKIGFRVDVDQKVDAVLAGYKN
Sequence of soluble methane monooxygenase from Methylosinus trichosporium (OB3b) (P27355 whole entry, further chain): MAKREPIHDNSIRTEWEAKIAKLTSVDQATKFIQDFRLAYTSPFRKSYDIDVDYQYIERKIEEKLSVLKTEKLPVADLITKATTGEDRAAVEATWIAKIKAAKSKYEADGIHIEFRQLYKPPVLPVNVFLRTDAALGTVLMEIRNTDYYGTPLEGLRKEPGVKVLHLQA
Sequence of soluble methane monooxygenase from Methylosinus trichosporium (OB3b) (P27353 whole entry): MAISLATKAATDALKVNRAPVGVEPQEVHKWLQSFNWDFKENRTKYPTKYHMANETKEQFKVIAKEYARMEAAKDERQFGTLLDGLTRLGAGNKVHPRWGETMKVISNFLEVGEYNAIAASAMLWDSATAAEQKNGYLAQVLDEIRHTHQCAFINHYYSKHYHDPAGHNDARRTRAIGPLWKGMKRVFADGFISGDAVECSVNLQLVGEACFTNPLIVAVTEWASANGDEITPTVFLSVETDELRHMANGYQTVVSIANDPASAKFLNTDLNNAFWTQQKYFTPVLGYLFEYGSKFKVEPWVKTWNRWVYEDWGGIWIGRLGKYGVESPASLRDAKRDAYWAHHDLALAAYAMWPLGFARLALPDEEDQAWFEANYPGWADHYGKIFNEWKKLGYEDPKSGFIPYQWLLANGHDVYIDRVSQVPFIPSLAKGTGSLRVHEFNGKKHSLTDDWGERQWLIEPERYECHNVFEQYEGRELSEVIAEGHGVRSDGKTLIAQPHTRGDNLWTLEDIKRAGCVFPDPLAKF

[8] = molecular target: T1, soluble methane monooxygenase from Methylococcus capsulatus (Bath); settings: cited from earlier work
[9] = test system: Soluble Methane Monooxygenase from Methylobacterium organophilum (ATCC 27,886); assay: Hydroxylation of alkanes / epoxidation of alkenes with NADH2 regenerated by formaldehyde dehydrogenase (Example 21); format: biochemical
Procedure: as §1, §2, §3, §4

[10] = test system: soluble methane monooxygenase; assay: Other electron donors in place of NADH2 (Example 23); format: biochemical, Methylobacterium organophilum (ATCC 27,886); settings: as electron donor replacing NADH2 in the procedure of Example 15
Procedure: as §1, §2

[11] = test system: Soluble Methane Monooxygenase; assay: Effect of various cofactor systems on propylene oxidation by the soluble S(80) fraction (Examples 7, 11); format: biochemical, Methylobacterium organophilum (CRL.26); settings: propylene substrate; for Specific Activity: cofactor system at 2.5 mM; for suitability as cofactor system / electron donor (in words): replacing NADH2
Procedure: as §5, §7, §8, §6

[12] = inhibitor 1 mM, incubated at 0°C for 15 min, propylene substrate, percentage of control (100%) containing no inhibitor
[13] = inhibitor 1 mM, incubated at 0°C for 15 min, propylene substrate, percentage of control containing no inhibitor
[14] = inhibitor 0.1 mM, incubated at 0°C for 15 min, propylene substrate, percentage of control (100%) containing no inhibitor
[15] = inhibitor 0.1 mM, incubated at 0°C for 15 min, propylene substrate, percentage of control containing no inhibitor

Molecule: 2-Butanol
- Rate of Product Formation ([1]; product 2-Butanone, substrates Ethane and 2-Butanol): 48 nmoles/ min/mg of protein
- Rate of Product Formation ([1]; product 2-Butanone, substrates Ethylene and 2-Butanol): 45 nmoles/ min/mg of protein
- Rate of Product Formation ([1]; product 2-Butanone, substrates Methane and 2-Butanol): 50 nmoles/ min/mg of protein
- Rate of Product Formation ([1]; product 2-Butanone, substrates Propane and 2-Butanol): 45 nmoles/ min/mg of protein
- Rate of Product Formation ([1]; product 2-Butanone, substrates Propylene and 2-Butanol): 50 nmoles/ min/mg of protein
- Rate of Product Formation ([2]; product Acetone, substrates Propane and 2-Butanol, NAD^+, secondary alcohol dehydrogenase): 18 nmoles/ min/mg of protein

Molecule: c1cnc2c(c1)ccc1cccnc12 [1,10-Phenanthroline]
- inhibition of the activity of Methylococcus capsulatus (Bath) (in words) [3]: did not inhibit
- inhibition of soluble methane monooxygenase activity (in words) [4]: not inhibited
- Activity (%) [4, 12]: 67%
- Inhibition (%) [4, 13]: 33%
- inhibited activity of Methylobacterium organophilum (CRL.26) ([4]; statement in the text of Example 9): about 30%

Molecule: C=CCC [1-Butene]
- Rate of Product Formation ([5]; pH 7): 35 nmoles/ min/mg of protein
- Rate of Product Formation ([6]; pH 7): 180 nmoles/min/mg protein

Molecule: CC(C)O [2-Propanol]
- Rate of Product Formation ([1]; product Acetone, substrates Butane and 2-Propanol): 45 nmoles/ min/mg of protein
- Rate of Product Formation ([1]; product Acetone, substrates Isobutylene and 2-Propanol): 45 nmoles/ min/mg of protein
- Rate of Product Formation ([2]; product 2-Butanone, substrates Butane and 2-Propanol, NAD^+, secondary alcohol dehydrogenase): 10 nmoles/ min/mg of protein

Molecule: O=C(O)c1cc(SSc2ccc([N+](=O)[O-])c(C(=O)O)c2)ccc1[N+](=O)[O-] [5,5'-dithiobis-2-nitrobenzoate]
- inhibition of soluble methane monooxygenase activity (in words) [4]: inhibit
- Activity (%) [4, 12]: 38%
- Inhibition (%) [4, 13]: 62%

Molecule: Oc1cccc2cccnc12 [8-Hydroxyquinoline]
- inhibition of soluble methane monooxygenase (in words) [7]: strongly inhibits
- inhibition of soluble methane monooxygenase (in words) [8]: strongly inhibits
- Activity (%) [4]: 117%
- Inhibition (%) [4]: 0%
- inhibition of soluble methane monooxygenase activity (in words) [4]: not inhibitory

Molecule: CCCC [Butane]
- Rate of Product Formation ([9]; pH 7): 20 nmoles/ min/mg of protein and 10 nmoles/ min/mg of protein
- Rate of Product Formation ([6]; pH 7): 250 nmoles/min/mg protein and 150 nmoles/min/mg protein
- Rate of Product Formation [2]: 15 nmoles/ min/mg of protein

Molecule: CC [Ethane]
- Rate of Product Formation ([6]; product Ethanol, NAD^+, formaldehyde, reduced glutathione, formaldehyde dehydrogenase, pH 7.0): 145 nmoles/min/mg protein

Molecule: C=C [Ethylene]
- Rate of Product Formation ([9]; pH 7): 28 nmoles/ min/mg of protein
- Rate of Product Formation ([5]; pH 7): 28 nmoles/ min/mg of protein
- Rate of Product Formation ([6]; pH 7): 140 nmoles/min/mg protein
- Rate of Product Formation [2]: 25 nmoles/ min/mg of protein

Molecule: NC(=O)CI [Iodoacetamide]
- inhibition of soluble methane monooxygenase activity (in words) [4]: inhibit
- Activity (%) [4, 12]: 20%
- Inhibition (%) [4, 13]: 80%

Molecule: C=C(C)C [Isobutylene]
- Rate of Product Formation ([2]; product Epoxyisobutylene, substrates Isobutylene and 2-Propanol, NAD^+, secondary alcohol dehydrogenase): 29 nmoles/ min/mg of protein

Molecule: C [Methane]
- Rate of Product Formation ([6]; product Methanol, NAD^+, formaldehyde, reduced glutathione, formaldehyde dehydrogenase from Pichia sp., pH 7.0): 128 nmoles/min/mg protein

Molecule: CCN1C(=O)C=CC1=O [N-Ethylmaleimide]
- Activity (%) [4, 12]: 102%
- Inhibition (%) [4, 13]: 0%

Molecule: NC(=O)C1=CN([C@@H]2O[C@H](COP(=O)(O)OP(=O)(O)OC[C@H]3O[C@@H](n4cnc5c(N)ncnc54)[C@H](O)[C@@H]3O)[C@@H](O)[C@H]2O)C=CC1 [NADH2, nicotinamide adenine dinucleotide in the reduced form]
- soluble methane monooxygenase activity observed [10]: about 70%
- Specific Activity [11]: 100 nmoles/min/mg of protein
- suitability as cofactor system / electron donor (in words) [11]: suitable

Molecule: NC(=O)C1=CN([C@@H]2O[C@H](COP(=O)(O)OP(=O)(O)OC[C@H]3O[C@@H](n4cnc5c(N)ncnc54)[C@H](OP(=O)(O)O)[C@@H]3O)[C@@H](O)[C@H]2O)C=CC1 [NADPH2, nicotinamide adenine dinucleotide phosphate in the reduced form]
- Specific Activity [11]: 70 nmoles/min/mg of protein
- suitability as cofactor system / electron donor (in words) [11]: suitable

Molecule: CCC [Propane]
- Rate of Product Formation ([6]; product Propan-1-ol, NAD^+, formaldehyde, reduced glutathione, formaldehyde dehydrogenase, pH 7.0): 60 nmoles/min/mg protein
- Rate of Product Formation ([6]; product Propan-2-ol, NAD^+, formaldehyde, reduced glutathione, formaldehyde dehydrogenase, pH 7.0): 95 nmoles/min/mg protein

Molecule: C=CC [Propylene]
- Rate of Product Formation ([9]; product Propylene Oxide, NAD^+, reduced glutathione, formaldehyde, formaldehyde dehydrogenase, pH 7.0): 52 nmoles/ min/mg of protein
- Rate of Product Formation ([5]; product Propylene Oxide, NAD^+ and sodium formate, pH 7.0): 54 nmoles/ min/mg of protein
- Rate of Product Formation ([6]; product Propylene Oxide, NAD^+, formaldehyde, reduced glutathione, formaldehyde dehydrogenase, pH 7.0): 250 nmoles/min/mg protein
- uninhibited rate of propylene oxidation ([4]; no inhibitor, substrate propylene): (b) The uninhibited rate of propylene oxidation was 100 nmoles of propylene oxide produced/min/mg of protein.
- Rate of Product Formation ([2]; product Propylene oxide, substrates Propylene and 2-Butanol, NAD^+, secondary alcohol dehydrogenase): 48 nmoles/ min/mg of protein

Molecule: NNC(N)=S [Thiosemicarbazide]
- inhibition of soluble methane monooxygenase activity (in words) [4]: not inhibited
- Activity (%) [4, 12]: 108%
- Inhibition (%) [4, 13]: 0%

Molecule: O=C(O)c1cc[c]([Hg+])cc1.[OH-] [p-Hydroxymercuribenzoate]
- Activity (%) [4, 14]: 100%
- Inhibition (%) [4, 15]: 0%

Molecule: Acriflavin
- inhibition of soluble methane monooxygenase activity (in words) [4]: inhibit
- Activity (%) [4, 14]: 71%
- Inhibition (%) [4, 15]: 29%

— patent EP0088602A2, “Microbiological oxidation process” (EXXON RESEARCH AND ENGINEERING COMPANY, priority 1982, dated 1983)
